The target of assay [1] is DNA-PK(h) (Homo sapiens, UniProt P78527). The assay is described as follows: Evaluation of inhibitory activity against DNA-PK (HTRF kinase assay, GST-cMyc-p53 substrate). The assay is classed as biochemical. Particulars: for inhibition at 0.01 µM: compound concentration 0.01 μM, read-out: EXP_VALUE(% Inhibition) DNA-PK(h) 0.01 μM; for inhibition at 0.1 µM: compound concentration 0.1 μM, read-out: EXP_VALUE(% Inhibition) DNA-PK(h) 0.1 μM. Summed up:
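Human DNA-PK with 50 μM GST-cMyc-p53 substrate; reaction started with Mg/ATP, run 30 min at room temperature, stopped with EDTA. Phospho-Ser15 p53 detected by HTRF (Eu anti-phospho-Ser15, d2 anti-GST), signal = 10000×(Em 665/Em 620).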

The target of assay [2] is PI3K-δ (PI3K(p1108/p857) (h)) (Homo sapiens, UniProt O00329). The assay is described as follows: Evaluation of inhibitory activity against PI3K-δ (HTRF kinase assay). The assay is classed as biochemical. Particulars: for inhibition at 0.01 µM: compound concentration 0.01 μM, read-out: EXP_VALUE(% Inhibition) PI3K-δ 0.01 μM; for inhibition at 0.1 µM: compound concentration 0.1 μM, read-out: EXP_VALUE(% Inhibition) PI3K-δ 0.1 μM. In a few lines: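 HTRF read-out (665/620 nm ratio ×10000) used Eu-labelled anti-GST, GST-tagged GRP1 PH domain and streptavidin-allophycocyanin after EDTA/PIP3 stop.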
Sequence of PI3K-δ (PI3K(p1108/p857) (h)) (O00329 whole entry, the tested form may be a part): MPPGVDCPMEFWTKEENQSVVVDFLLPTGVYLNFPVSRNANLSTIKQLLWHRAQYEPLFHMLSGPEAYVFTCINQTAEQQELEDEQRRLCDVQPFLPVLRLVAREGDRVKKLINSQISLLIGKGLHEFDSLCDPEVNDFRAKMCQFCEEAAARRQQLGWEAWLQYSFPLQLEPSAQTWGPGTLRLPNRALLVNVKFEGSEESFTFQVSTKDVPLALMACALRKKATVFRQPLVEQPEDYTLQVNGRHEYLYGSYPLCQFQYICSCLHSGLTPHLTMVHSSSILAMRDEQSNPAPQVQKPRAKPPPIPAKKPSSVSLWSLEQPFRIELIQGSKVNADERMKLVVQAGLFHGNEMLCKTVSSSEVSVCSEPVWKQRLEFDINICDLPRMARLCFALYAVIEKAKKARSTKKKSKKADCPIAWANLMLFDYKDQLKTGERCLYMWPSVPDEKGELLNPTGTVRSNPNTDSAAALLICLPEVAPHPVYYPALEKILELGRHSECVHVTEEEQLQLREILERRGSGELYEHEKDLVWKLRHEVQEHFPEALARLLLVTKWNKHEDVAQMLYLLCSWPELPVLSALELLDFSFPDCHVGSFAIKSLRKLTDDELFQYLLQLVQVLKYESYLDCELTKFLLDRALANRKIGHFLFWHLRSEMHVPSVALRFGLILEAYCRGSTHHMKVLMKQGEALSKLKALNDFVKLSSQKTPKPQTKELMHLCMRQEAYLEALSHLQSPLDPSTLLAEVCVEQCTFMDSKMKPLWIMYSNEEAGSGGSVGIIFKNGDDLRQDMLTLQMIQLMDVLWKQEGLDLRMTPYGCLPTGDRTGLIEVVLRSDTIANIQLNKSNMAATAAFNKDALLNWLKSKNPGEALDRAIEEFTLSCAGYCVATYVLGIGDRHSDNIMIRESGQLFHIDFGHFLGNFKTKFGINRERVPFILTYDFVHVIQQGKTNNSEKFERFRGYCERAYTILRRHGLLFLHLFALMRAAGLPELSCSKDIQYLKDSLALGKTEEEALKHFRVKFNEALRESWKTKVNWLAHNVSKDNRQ
Sequence of PI3K-δ (PI3K(p1108/p857) (h)) (P27986 whole entry partner, the tested form may be a part): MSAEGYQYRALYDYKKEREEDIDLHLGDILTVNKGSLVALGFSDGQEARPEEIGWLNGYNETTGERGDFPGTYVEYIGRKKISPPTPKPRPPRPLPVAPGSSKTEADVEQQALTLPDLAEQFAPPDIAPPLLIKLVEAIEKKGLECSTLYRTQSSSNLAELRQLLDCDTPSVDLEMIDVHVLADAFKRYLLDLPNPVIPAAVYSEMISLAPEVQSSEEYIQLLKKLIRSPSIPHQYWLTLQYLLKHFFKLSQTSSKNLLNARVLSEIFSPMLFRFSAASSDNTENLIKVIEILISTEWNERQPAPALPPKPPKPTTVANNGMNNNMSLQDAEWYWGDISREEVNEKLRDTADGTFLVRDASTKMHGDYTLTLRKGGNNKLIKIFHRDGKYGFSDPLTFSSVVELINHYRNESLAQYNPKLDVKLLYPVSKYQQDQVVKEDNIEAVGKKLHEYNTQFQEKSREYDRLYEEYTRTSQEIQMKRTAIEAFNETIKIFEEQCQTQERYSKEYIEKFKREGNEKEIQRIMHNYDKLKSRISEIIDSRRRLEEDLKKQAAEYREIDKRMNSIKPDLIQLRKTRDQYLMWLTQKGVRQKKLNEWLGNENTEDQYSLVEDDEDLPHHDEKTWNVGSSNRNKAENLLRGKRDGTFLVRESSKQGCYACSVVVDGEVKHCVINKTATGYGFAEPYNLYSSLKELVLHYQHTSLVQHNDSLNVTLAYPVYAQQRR

As to `COc1ncc(-c2cccc3c(Cl)c([C@H](C)Nc4ncnc5[nH]ccc(=O)c45)n(-c4ccccc4)c(=O)c23)cc1NS(=O)(=O)c1ccc(F)cc1F` [Example 232, (S)—N-(5-(4-chloro-1-oxo-3-(1-((5-oxo-5,8-dihydropyrido[2,3-d]pyrimidin-4-yl)amino)ethyl)-2-phenyl-1,2-dihydroisoquinolin-8-yl)-2-methoxypyridin-3-yl)-2,4-difluorobenzenesulfonamide], the values for the inhibition at 0.01 µM in assay [1] and in assay [2] were 15% and 23%, respectively.
As to `C[C@H](Nc1ncnc2[nH]ccc(=O)c12)c1c(Cl)c2cccc(-c3ccc4nsnc4c3)c2c(=O)n1-c1ccccc1` [Example 233, (S)-4-((1-(8-(benzo[c][1,2,5]thiadiazol-5-yl)-4-chloro-1-oxo-2-phenyl-1,2-dihydroisoquinolin-3-yl)ethyl)amino)pyrido[2,3-d]pyrimidin-5(8H)-one], the results for the inhibition at 0.01 µM in assay [1] and in assay [2] were 60% and 77%, respectively.
`Cc1cc(-c2cccc3c(Cl)c([C@H](C)Nc4ncnc5[nH]ccc(=O)c45)n(-c4ccccc4)c(=O)c23)n[nH]1` [Example 234, (S)-4-((1-(4-chloro-8-(5-methyl-1H-pyrazol-3-yl)-1-oxo-2-phenyl-1,2-dihydroisoquinolin-3-yl)ethyl)amino)pyrido[2,3-d]pyrimidin-5(8H)-one]: the inhibition at 0.01 µM in assay [1] is 50%; in assay [2] it was 85%.
On to `C[C@H](Nc1ncnc2[nH]ccc(=O)c12)c1c(Cl)c2cccc(-c3cnc4nonc4c3)c2c(=O)n1-c1ccccc1` [Example 235, (S)-4-((1-(8-([1,2,5]oxadiazolo[3,4-b]pyridin-6-yl)-4-chloro-1-oxo-2-phenyl-1,2-dihydroisoquinolin-3-yl)ethyl)amino)pyrido[2,3-d]pyrimidin-5(8H)-one], for which the inhibition at 0.01 µM in assay [1] was found to be 46%; in assay [2] it was 80%.
Turning to `C[C@H](Nc1ncnc2[nH]ccc(=O)c12)c1c(Cl)c2cccc(-c3ccc4[nH]ncc4c3)c2c(=O)n1-c1ccccc1` [Example 236, (S)-4-((1-(4-chloro-8-(1H-indazol-5-yl)-1-oxo-2-phenyl-1,2-dihydroisoquinolin-3-yl)ethyl)amino)pyrido[2,3-d]pyrimidin-5(8H)-one], the inhibition at 0.01 µM in assay [1] is 46%; in assay [2], 79%.
Consider `C[C@H](Nc1ncnc2[nH]ccc(=O)c12)c1c(Cl)c2cccc(-c3cccc4c3cnn4C)c2c(=O)n1-c1ccccc1` [Example 237, (S)-4-((1-(4-chloro-8-(1-methyl-1H-indazol-4-yl)-1-oxo-2-phenyl-1,2-dihydroisoquinolin-3-yl)ethyl)amino)pyrido[2,3-d]pyrimidin-5(8H)-one], for which the inhibition at 0.01 µM was determined as 29% in assay [1] and 85% in assay [2].
In the same order, the values of `C[C@H](Nc1ncnc2[nH]ccc(=O)c12)c1c(Cl)c2cccc(-c3cnoc3)c2c(=O)n1-c1ccccc1` [Example 238, (S)-4-((1-(4-chloro-8-(isoxazol-4-yl)-1-oxo-2-phenyl-1,2-dihydroisoquinolin-3-yl)ethyl)amino)pyrido[2,3-d]pyrimidin-5(8H)-one] are 15% and 15%.
With `C[C@H](Nc1ncnc2[nH]ccc(=O)c12)c1c(Cl)c2cccc(-c3cccc4cn[nH]c34)c2c(=O)n1-c1ccccc1` [Example 239, (S)-4-((1-(4-chloro-8-(1H-indazol-7-yl)-1-oxo-2-phenyl-1,2-dihydroisoquinolin-3-yl)ethyl)amino)pyrido[2,3-d]pyrimidin-5(8H)-one], the results for the inhibition at 0.01 µM in assay [1] and in assay [2] were 10% and 38%, respectively.
`C[C@H](Nc1ncnc2[nH]ccc(=O)c12)c1c(Cl)c2cccc(-c3ccc4nonc4c3)c2c(=O)n1-c1ccccc1` [Example 240, (S)-4-((1-(8-(benzo[c][1,2,5]oxadiazol-5-yl)-4-chloro-1-oxo-2-phenyl-1,2-dihydroisoquinolin-3-yl)ethyl)amino)pyrido[2,3-d]pyrimidin-5(8H)-one]: the inhibition at 0.01 µM stood at 22% in assay [1] and 61% in assay [2].
As for `C[C@H](Nc1ncnc2[nH]ccc(=O)c12)c1c(Cl)c2cccc(-c3ccc4ocnc4c3)c2c(=O)n1-c1ccccc1` [Example 241, (S)-4-((1-(8-(benzo[d]oxazol-5-yl)-4-chloro-1-oxo-2-phenyl-1,2-dihydroisoquinolin-3-yl)ethyl)amino)pyrido[2,3-d]pyrimidin-5(8H)-one], the inhibition at 0.01 µM in assay [1] worked out at 49%; in assay [2], 32%.
Regarding `Cc1csc(-c2cccc3c(Cl)c([C@H](C)Nc4ncnc5[nH]ccc(=O)c45)n(-c4ccccc4)c(=O)c23)c1` [Example 242, (S)-4-((1-(4-chloro-8-(4-methylthiophen-2-yl)-1-oxo-2-phenyl-1,2-dihydroisoquinolin-3-yl)ethyl)amino)pyrido[2,3-d]pyrimidin-5(8H)-one], the values for the inhibition at 0.01 µM in assay [1] and in assay [2] were 65% and 69%, respectively.
With `Cc1ccsc1-c1cccc2c(Cl)c([C@H](C)Nc3ncnc4[nH]ccc(=O)c34)n(-c3ccccc3)c(=O)c12` [Example 243, (S)-4-((1-(4-chloro-8-(3-methylthiophen-2-yl)-1-oxo-2-phenyl-1,2-dihydroisoquinolin-3-yl)ethyl)amino)pyrido[2,3-d]pyrimidin-5(8H)-one], the inhibition at 0.01 µM in assay [1] amounted to 32%; in assay [2], 45%.
In the same order, the values of `Cc1c[nH]nc1-c1cccc2c(Cl)c([C@H](C)Nc3ncnc4[nH]ccc(=O)c34)n(-c3ccccc3)c(=O)c12` [Example 244, (S)-4-((1-(4-chloro-8-(4-methyl-1H-pyrazol-3-yl)-1-oxo-2-phenyl-1,2-dihydroisoquinolin-3-yl)ethyl)amino)pyrido[2,3-d]pyrimidin-5(8H)-one] are 7% and 65%.
As to `C[C@H](Nc1ncnc2[nH]ccc(=O)c12)c1c(Cl)c2cccc(CN3CCOCC3)c2c(=O)n1-c1ccccc1` [Example 245, (S)-4-((1-(4-chloro-8-(morpholinomethyl)-1-oxo-2-phenyl-1,2-dihydroisoquinolin-3-yl)ethyl)amino)pyrido[2,3-d]pyrimidin-5(8H)-one], the inhibition at 0.01 µM in assay [1] stood at 43%; in assay [2] it was 52%.
In the same order, the values of `CNc1ccc(-c2cccc3c(Cl)c([C@H](C)Nc4ncnc5[nH]ccc(=O)c45)n(-c4ccccc4)c(=O)c23)cn1` [Example 246, (S)-4-((1-(4-chloro-8-(6-(methylamino)pyridin-3-yl)-1-oxo-2-phenyl-1,2-dihydroisoquinolin-3-yl)ethyl)amino)pyrido[2,3-d]pyrimidin-5(8H)-one] are 79% and 85%.
As for `C[C@H](Nc1ncnc2[nH]ccc(=O)c12)c1c(Cl)c2cccc(-c3ccc(OC(F)(F)F)cc3)c2c(=O)n1-c1ccccc1` [Example 247, (S)-4-((1-(4-chloro-1-oxo-2-phenyl-8-(4-(trifluoromethoxy)phenyl)-1,2-dihydroisoquinolin-3-yl)ethyl)amino)pyrido[2,3-d]pyrimidin-5(8H)-one], the values for the inhibition at 0.01 µM in assay [1] and in assay [2] were 21% and 75%, respectively.
For `Cc1ccc(-c2cccc3c(Cl)c([C@H](C)Nc4ncnc5[nH]ccc(=O)c45)n(-c4ccccc4)c(=O)c23)c(C)n1` [Example 248, (S)-4-((1-(4-chloro-8-(2,6-dimethylpyridin-3-yl)-1-oxo-2-phenyl-1,2-dihydroisoquinolin-3-yl)ethyl)amino)pyrido[2,3-d]pyrimidin-5(8H)-one], the inhibition at 0.01 µM is 66% in assay [1] and 99% in assay [2].
Consider `C[C@H](Nc1ncnc2[nH]ccc(=O)c12)c1c(Cl)c2cccc(N(C)C)c2c(=O)n1-c1ccccc1` [Example 249, (S)-4-((1-(4-chloro-8-(dimethylamino)-1-oxo-2-phenyl-1,2-dihydroisoquinolin-3-yl)ethyl)amino)pyrido[2,3-d]pyrimidin-5(8H)-one], for which the inhibition at 0.01 µM in assay [1] was 11%; in assay [2], 69%. Besides, the inhibition at 0.1 µM in assay [1] amounted to 69%; in assay [2] it was 98%.
Regarding `C[C@H](Nc1ncnc2[nH]ccc(=O)c12)c1c(Cl)c2cccc(N3CCN(C)CC3)c2c(=O)n1-c1ccccc1` [Example 250, (S)-4-((1-(4-chloro-8-(4-methylpiperazin-1-yl)-1-oxo-2-phenyl-1,2-dihydroisoquinolin-3-yl)ethyl)amino)pyrido[2,3-d]pyrimidin-5(8H)-one], in assay [1], the inhibition at 0.01 µM worked out at 0% and the inhibition at 0.1 µM came out at 57%. In assay [2], the inhibition at 0.01 µM stood at 32% and the inhibition at 0.1 µM worked out at 82%.
Consider `C[C@H](Nc1ncnc2[nH]ccc(=O)c12)c1c(Cl)c2cccc(N3CCOCC3)c2c(=O)n1-c1ccccc1` [Example 251, (S)-4-((1-(4-chloro-8-morpholino-1-oxo-2-phenyl-1,2-dihydroisoquinolin-3-yl)ethyl)amino)pyrido[2,3-d]pyrimidin-5(8H)-one], for which, in assay [1], the inhibition at 0.01 µM was determined as 6% and the inhibition at 0.1 µM came out at 60%. In assay [2], the inhibition at 0.01 µM was found to be 65% and the inhibition at 0.1 µM was 109%.
Turning to `C[C@H](Nc1ncnc2[nH]ccc(=O)c12)c1c(Cl)c2cccc(N3CCCC3)c2c(=O)n1-c1ccccc1` [Example 252, (S)-4-((1-(4-chloro-1-oxo-2-phenyl-8-(pyrrolidin-1-yl)-1,2-dihydroisoquinolin-3-yl)ethyl)amino)pyrido[2,3-d]pyrimidin-5(8H)-one], in assay [1], the inhibition at 0.01 µM came to 4% and the inhibition at 0.1 µM worked out at 42%. Moreover, in assay [2], the inhibition at 0.01 µM was 53% and the inhibition at 0.1 µM was 97%.

Source of the values: patent publication US20230072683A1, “PYRIDO-PYRIMIDIN DERIVATIVES AND PHARMACEUTICAL COMPOSITION, FOR USE IN PREVENTING OR TREATING PI3 KINASE RELATED DISEASES, COMPRISING SAME AS ACTIVE INGREDIENT” (BORYUNG PHARMACEUTICAL CO., LTD, priority 2019, published 2023).
